Consider 29 compounds from US10774102B2, “Galactoside inhibitor of galectins” (Galecto Biotech AB, priority 2015, dated 2020).

The assay concerns the target galectin-3 (Homo sapiens (Human), UniProt P17931). Briefly: Fluorescence anisotropy assay of galectin-3 affinity (compound inhibits galectin binding to a fluorescein tagged saccharide probe). The settings on record: high affinity probe, 50 nM galectin-3, 100 nM albumin. Here is the method: 100 nM albumin was included as a carrier to prevent protein loss at such low concentration of galectin.
In general terms: Fluorescence polarisation rises when a labelled molecule tumbles more slowly, as on binding a larger partner.

Structures are written as SMILES.

galectin-3, sequence (P17931 whole entry): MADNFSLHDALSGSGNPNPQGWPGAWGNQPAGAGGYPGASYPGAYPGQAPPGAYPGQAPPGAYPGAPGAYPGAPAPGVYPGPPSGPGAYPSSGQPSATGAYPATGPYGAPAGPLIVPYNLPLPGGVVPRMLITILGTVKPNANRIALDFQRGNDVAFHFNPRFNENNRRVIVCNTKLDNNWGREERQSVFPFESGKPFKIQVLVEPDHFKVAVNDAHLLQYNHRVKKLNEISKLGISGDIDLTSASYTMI

For `OC[C@H]1O[C@H](Oc2ccc(Cl)cc2)[C@H](O)[C@@H](n2cc(-c3cc(F)c(F)c(F)c3)nn2)[C@H]1O` [Example 34, 4-Chlorophenyl 3-deoxy-3-[4-(3,4,5-trifluorophenyl)-1H-1,2,3-triazol-1-yl]-α-D-galactopyranoside], the affinity, expressed as Kd, was 570 nM.
Turning to `CCCC(=O)c1cn([C@@H]2[C@@H](O)[C@@H](Sc3ccc(Cl)c(Cl)c3)O[C@H](CO)[C@@H]2O)nn1` [Example 102, 3,4-Dichlorophenyl 3-deoxy-3-[4-(propyl-carbonyl)-1H-1,2,3-triazol-1-yl]-1-thio-α-D-galactopyranoside], the affinity, expressed as Kd, was 1010 nM.
On to `[O-][S+](c1cncc(Br)c1)[C@H]1O[C@H](CO)[C@H](O)[C@H](n2cc(-c3cc(F)c(F)c(F)c3)nn2)[C@H]1O` (single isomer, unassigned; isomer 2) [Example 91, 5-Bromopyridin-3-yl 3-deoxy-3-[4-(3,4,5-trifluorophenyl)-1H-1,2,3-triazol-1-yl]-α-D-galactopyranosyl sulfoxide, isomer 2], for which the Kd (in general, a measure of binding affinity in units of concentration) is 130 nM.
Under `OC[C@H]1O[C@H](Sc2ccncc2)[C@H](O)[C@@H](n2cc(-c3cc(F)c(F)c(F)c3)nn2)[C@H]1O` [Example 4, 4-Pyridyl 3-deoxy-3-[4-(3,4,5-trifluorophenyl)-1H-1,2,3-triazol-1-yl]-1-thio-α-D-galactopyranoside] stands 190 nM; under `OC[C@H]1O[C@H](Oc2ccccc2)[C@H](O)[C@@H](n2cc(-c3cc(F)c(F)c(F)c3)nn2)[C@H]1O` [Example 32, Phenyl 3-deoxy-3-[4-(3,4,5-trifluorophenyl)-1H-1,2,3-triazol-1-yl]-α-D-galactopyranoside], 1000 nM.
Consider `OC[C@H]1O[C@H](Sc2cccc(Cl)c2)[C@H](O)[C@@H](n2cc(-c3cc(F)c(F)c(F)c3)nn2)[C@H]1O` [Example 19, 3-Chlorophenyl 3-deoxy-3-[4-(3,4,5-trifluorophenyl)-1H-1,2,3-triazol-1-yl]-1-thio-α-D-galactopyranoside], for which the dissociation constant (Kd) is 49 nM.
`CCOc1cccc(S[C@H]2O[C@H](CO)[C@H](O)[C@H](n3cc(-c4cc(F)c(F)c(F)c4)nn3)[C@H]2O)c1` [Example 3, 3-Ethoxyphenyl 3-deoxy-3-[4-(3,4,5-trifluorophenyl)-1H-1,2,3-triazol-1-yl]-1-thio-α-D-galactopyranoside]: the Kd came to 420 nM.
Under `OC[C@H]1O[C@H](Sc2ccccc2)[C@H](O)[C@@H](n2cc(-c3cc(F)c(F)c(F)c3)nn2)[C@H]1O` [Example 27, Phenyl 3-deoxy-3-[4-(3,4,5-trifluorophenyl)-1H-1,2,3-triazol-1-yl]-1-thio-α-D-galactopyranoside] stands 400 nM.
Under `O=C(N[C@@H]1C(O)[C@@H](Sc2ccc(Cl)c(Cl)c2)OC(CO)[C@@H]1O)c1cc(F)c(F)c(F)c1` (stereo partly drawn) [Example 96, 3,4-dichlorophenyl-3-deoxy-3-(3,4,5-trifluorobenzamido)-1-thio-α-D-galactopyranoside] stands 3500 nM; under `OC[C@H]1O[C@H](Sc2cccc(C(F)(F)F)c2)[C@H](O)[C@@H](n2cc(-c3cc(F)c(F)c(F)c3)nn2)[C@H]1O` [Example 14, 3-(Trifluoromethyl)phenyl 3-deoxy-3-[4-(3,4,5-trifluorophenyl)-1H-1,2,3-triazol-1-yl]-1-thio-α-D-galactopyranoside], 130 nM; under `[O-][S+](c1ccc(Cl)cc1)[C@H]1O[C@H](CO)[C@H](O)[C@H](n2cc(-c3cc(F)c(F)c(F)c3)nn2)[C@H]1O` (stereo partly drawn) [Example 26, 4-Chlorophenyl 3-deoxy-3-[4-(3,4,5-trifluorophenyl)-1H-1,2,3-triazol-1-yl]-α-D-galactopyranosyl sulfoxide], 770 nM.
`Cc1cccc(C)c1S[C@H]1O[C@H](CO)[C@H](O)[C@H](n2cc(-c3cc(F)c(F)c(F)c3)nn2)[C@H]1O` [Example 17, 2,6-Dimethylphenyl 3-deoxy-3-[4-(3,4,5-trifluorophenyl)-1H-1,2,3-triazol-1-yl]-1-thio-α-D-galactopyranoside] showed an equilibrium dissociation constant (Kd) of 1580 nM.
Under `OC[C@H]1O[C@H](Sc2cccc(Br)c2)[C@H](O)[C@@H](n2cc(-c3cc(F)c(F)c(F)c3)nn2)[C@H]1O` [Example 2, 3-Bromophenyl 3-deoxy-3-[4-(3,4,5-trifluorophenyl)-1H-1,2,3-triazol-1-yl]-1-thio-α-D-galactopyranoside] stands 37 nM; under `OC[C@H]1O[C@H](Sc2ccc(F)c(Cl)c2)[C@H](O)[C@@H](n2cc(-c3cc(F)c(F)c(F)c3)nn2)[C@H]1O` [Example 28, 3-Chloro-4-fluorophenyl 3-deoxy-3-[4-(3,4,5-trifluorophenyl)-1H-1,2,3-triazol-1-yl]-1-thio-α-D-galactopyranoside], 48 nM; under `[O-][S+](c1cncc(Br)c1)[C@H]1O[C@H](CO)[C@H](O)[C@H](n2cc(-c3cc(F)c(F)c(F)c3)nn2)[C@H]1O` (single isomer, unassigned; isomer 1) [Example 90, 5-Bromopyridin-3-yl 3-deoxy-3-[4-(3,4,5-trifluorophenyl)-1H-1,2,3-triazol-1-yl]-α-D-galactopyranosyl sulfoxide, isomer 1], 28 nM.
For `Cc1ccc(S[C@H]2O[C@H](CO)[C@H](O)[C@H](n3cc(-c4cc(F)c(F)c(F)c4)nn3)[C@H]2O)cc1C` [Example 1, 3,4-Dimethylphenyl 3-deoxy-3-[4-(3,4,5-trifluorophenyl)-1H-1,2,3-triazol-1-yl]-1-thio-α-D-galactopyranoside], binding was put at a Kd of 150 nM.
Under `OC[C@H]1O[C@H](Sc2cc(Cl)c(Cl)cc2Cl)[C@H](O)[C@@H](n2cc(-c3cc(F)c(F)c(F)c3)nn2)[C@H]1O` [Example 36, 2,4,5-Trichlorophenyl 3-deoxy-3-[4-(3,4,5-trifluorophenyl)-1H-1,2,3-triazol-1-yl]-1-thio-α-D-galactopyranoside] stands 60 nM; under `OC[C@H]1O[C@H](Sc2ccc(Cl)cc2)[C@H](O)[C@@H](n2cc(-c3cc(F)c(F)c(F)c3)nn2)[C@H]1O` [Example 23, 4-Chlorophenyl 3-deoxy-3-[4-(3,4,5-trifluorophenyl)-1H-1,2,3-triazol-1-yl]-1-thio-α-D-galactopyranoside], 200 nM.
Under `OC[C@H]1O[C@H](Sc2cccc(O)c2)[C@H](O)[C@@H](n2cc(-c3cc(F)c(F)c(F)c3)nn2)[C@H]1O` [Example 38, 3-Hydroxy-phenyl 3-deoxy-3-[4-(3,4,5-trifluorophenyl)-1H-1,2,3-triazol-1-yl]-1-thio-α-D-galactopyranoside] stands 490 nM; under `O=S(=O)(c1cncc(Br)c1)[C@H]1O[C@H](CO)[C@H](O)[C@H](n2cc(-c3cc(F)c(F)c(F)c3)nn2)[C@H]1O` [Example 92, 5-Bromopyridin-3-yl 3-deoxy-3-[4-(3,4,5-trifluorophenyl)-1H-1,2,3-triazol-1-yl]-α-D-galactopyranosyl sulfone], 31 nM; under `[O-][S+](c1ccc(Cl)c(Cl)c1)[C@H]1O[C@H](CO)[C@H](O)[C@H](n2cc(-c3cc(F)c(F)c(F)c3)nn2)[C@H]1O` (stereo partly drawn) [Example 24, 3,4-Dichlorophenyl 3-deoxy-3-[4-(3,4,5-trifluorophenyl)-1H-1,2,3-triazol-1-yl]-α-D-galactopyranosyl sulfoxide], 10 nM.
As to `OCC1O[C@H](SCCc2ccccc2)C(O)[C@@H](n2cc(-c3cc(F)c(F)c(F)c3)nn2)[C@H]1O` (stereo partly drawn) [Example 40, 2-Phenethyl 3-deoxy-3-[4-(3,4,5-trifluorophenyl)-1H-1,2,3-triazol-1-yl]-1-thio-α-D-galactopyranoside], binding was characterised by a dissociation constant (Kd) of 480 nM.
Compound `[O-][S+](c1ccc(Cl)c(Cl)c1)[C@H]1O[C@H](CO)[C@H](O)[C@H](n2cc(-c3c(F)c(F)c(F)c(F)c3F)nn2)[C@H]1O` (stereo partly drawn) [Example 42, 3,4-Dichlorophenyl 3-deoxy-3-[4-(2,3,4,5,6-pentafluorophenyl)-1H-1,2,3-triazol-1-yl]-α-D-galactopyranosyl sulfoxide] had an equilibrium dissociation constant (Kd) of 2 nM.
Under `OC[C@H]1O[C@H](Sc2cc(Cl)ccc2Cl)[C@H](O)[C@@H](n2cc(-c3cc(F)c(F)c(F)c3)nn2)[C@H]1O` [Example 37, 2,5-Dichlorophenyl 3-deoxy-3-[4-(3,4,5-trifluorophenyl)-1H-1,2,3-triazol-1-yl]-1-thio-α-D-galactopyranoside] stands 84 nM.
Under `OCC1O[C@H](Sc2ccccn2)C(O)[C@@H](n2cc(-c3cc(F)c(F)c(F)c3)nn2)[C@H]1O` (stereo partly drawn) [Example 21, 2-Pyridyl 3-deoxy-3-[4-(3,4,5-trifluorophenyl-1H-1,2,3-triazol-1-yl]-)-1-thio-α-D-galactopyranoside] stands 510 nM; under `OC[C@H]1O[C@H](Oc2ccc(Cl)c(Cl)c2)[C@H](O)[C@@H](n2cc(-c3cc(F)c(F)c(F)c3)nn2)[C@H]1O` [Example 22, 3,4-Dichlorophenyl 3-deoxy-3-[4-(3,4,5-trifluorophenyl)-1H-1,2,3-triazol-1-yl]-α-D-galactopyranoside], 490 nM; under `COc1ccc(S[C@H]2OC(CO)[C@H](O)[C@H](n3cc(-c4cc(F)c(F)c(F)c4)nn3)C2O)cc1` (stereo partly drawn) [Example 7, 4-Methoxyphenyl 3-deoxy-3-[4-(3,4,5-trifluorophenyl)-1H-1,2,3-triazol-1-yl]-1-thio α-D-galactopyranoside], 410 nM.
Under `OC[C@H]1O[C@H](Sc2cc(Cl)cc(Cl)c2)[C@H](O)[C@@H](n2cc(-c3cc(F)c(F)c(F)c3)nn2)[C@H]1O` [Example 16, 3,5-Dichlorophenyl 3-deoxy-3-[4-(3,4,5-trifluorophenyl)-1H-1,2,3-triazol-1-yl]-1-thio-α-D-galactopyranoside] stands 80 nM.
As to `OC[C@H]1O[C@H](Sc2ccc(Cl)cc2Cl)[C@H](O)[C@@H](n2cc(-c3cc(F)c(F)c(F)c3)nn2)[C@H]1O` [Example 5, 2,4-Dichlorophenyl 3-deoxy-3-[4-(3,4,5-trifluorophenyl)-1H-1,2,3-triazol-1-yl]-1-thio-α-D-galactopyranoside], the equilibrium dissociation constant (Kd) amounted to 650 nM.
